Where two headings read alike, the source gives them in different places.
Tests used:
[1] = target: T1, PRMT5/MEP50 (Homo sapiens, UniProt O14744); assay: PRMT5 Biochemical Assay (PRMT5/MEP50 enzyme assay on peptide substrate, 3H-SAM Flashplate)
T1 construct: Expressed full-length human Flag-PRMT5/6His-MeP50 protein complex was purified; made in house; host or cells: Spodoptera frugiperda (SF9) insect cells, baculovirus (pDEST8)

[2] = test system: Z-138 cells; assay: Z-138 Proliferation Assay (Cell Titer Glo, 5 days); type: cell-based; conditions: Homo sapiens, 120 h, Table A-2, 5 days, top concentration 20 μM
From the text: Z-138 Proliferation Assay
Z-138 suspension cells were purchased from ATCC (American Type Culture Collection, Manassas, Va.). RPMI/Glutamax medium, penicillin-streptomycin, heat inactivated fetal bovine serum were purchased from Life Technologies, Grand Island, N.Y., USA. V-bottom polypropylene 384-well plates were purchased from Greiner Bio-One, Monroe, N.C., USA. Cell culture 384-well white opaque plates were purchased from Perkin Elmer, Waltham, Mass., USA. Cell-Titer Gb® was purchased from Promega Corporation, Madison, Wis., USA. SpectraMax M5 plate reader was purchased from Molecular Devices LLC, Sunnyvale, Calif., USA.
Z-138 suspension cells were maintained in growth medium (RPMI 1640 supplemented with 10% v/v heat inactivated fetal bovine serum and cultured at 37° C. under 5% CO2. Under assay conditions, cells were incubated in assay medium (RPMI 1640 supplemented with 10% v/v heat inactivated fetal bovine serum and 100 units/mL penicillin-streptomycin) at 37° C. under 5% CO2.
For the assessment of the effect of compounds on the proliferation of the Z-138 cell line, exponentially growing cells were plated in 384-well white opaque plates at a density of 10,000 cells/ml in a final volume of 50 μl of assay medium. A compound source plate was prepared by performing triplicate nine-point 3-fold serial dilutions in DMSO, beginning at 10 mM (final top concentration of compound in the assay was 20 μM and the DMSO was 0.2%). A 100 nL aliquot from the compound stock plate was added to its respective well in the cell plate. […] After addition of compounds, assay plates were incubated for 5 days at 37° C., 5% CO2, relative humidity >90%.
Cell viability was measured by quantitation of ATP present in the cell cultures, adding 35 μl of Cell Titer Glo® reagent to the cell plates. Luminescence was read in the SpectraMax M5 microplate reader. The concentration of compound inhibiting cell viability by 50% was determined using a 4-parametric fit of the normalized dose response curves.

[3] = Table A-2, PRMT5/MEP50 4 nM, 3H-SAM 75 nM, peptide 40 nM, read-out: Biochemical IC50

T1 sequence (O14744 with tags, fused parts or gaps): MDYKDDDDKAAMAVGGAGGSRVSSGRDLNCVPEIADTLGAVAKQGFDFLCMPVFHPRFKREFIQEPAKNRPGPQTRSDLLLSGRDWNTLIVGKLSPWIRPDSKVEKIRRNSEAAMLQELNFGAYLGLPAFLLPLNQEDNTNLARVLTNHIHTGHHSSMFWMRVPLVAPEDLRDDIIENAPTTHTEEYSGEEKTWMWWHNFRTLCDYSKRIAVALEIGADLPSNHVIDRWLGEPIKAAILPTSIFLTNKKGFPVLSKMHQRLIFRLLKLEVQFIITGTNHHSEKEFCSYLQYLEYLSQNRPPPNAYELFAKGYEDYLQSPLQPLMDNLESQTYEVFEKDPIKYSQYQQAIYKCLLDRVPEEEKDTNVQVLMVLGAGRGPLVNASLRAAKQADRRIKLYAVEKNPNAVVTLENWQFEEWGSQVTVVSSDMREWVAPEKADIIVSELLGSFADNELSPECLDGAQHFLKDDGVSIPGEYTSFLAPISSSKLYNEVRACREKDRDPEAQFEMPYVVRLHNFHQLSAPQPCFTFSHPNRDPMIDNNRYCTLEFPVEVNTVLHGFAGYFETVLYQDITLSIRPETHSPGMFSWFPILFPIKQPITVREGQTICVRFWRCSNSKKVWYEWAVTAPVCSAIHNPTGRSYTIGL
T1 sequence (Q9BQA1 with tags, fused parts or gaps partner limits assumed): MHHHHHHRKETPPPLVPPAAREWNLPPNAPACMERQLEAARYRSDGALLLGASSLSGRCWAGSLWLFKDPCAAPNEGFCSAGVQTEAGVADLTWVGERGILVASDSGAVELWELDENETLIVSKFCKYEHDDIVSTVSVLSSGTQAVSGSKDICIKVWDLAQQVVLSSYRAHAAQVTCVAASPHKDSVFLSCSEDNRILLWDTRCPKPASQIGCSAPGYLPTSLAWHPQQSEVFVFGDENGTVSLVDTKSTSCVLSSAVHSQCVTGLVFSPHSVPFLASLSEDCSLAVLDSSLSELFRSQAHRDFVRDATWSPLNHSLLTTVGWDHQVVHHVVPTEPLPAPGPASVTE

| SMILES | IC50 [1, 3] [nM] | EC50 [2] [nM] | IC50 ([1]; Biochemical IC50) [nM] |
| --- | --- | --- | --- |
| CN(C)c1ncccc1OCC(=O)NCC(O)CN1CCc2ccccc2C1 (centres unmarked) [Compound A127] | 101 to 1000 | > 20000 | – |
| O=C(COc1cccc2cccnc12)NC[C@@H](O)CN1CCc2ccccc2C1 [Compound A45] | – | 101 to 1000 | < 100 |
| CS(=O)(=O)N1CCc2c(cccc2OCC(=O)NCC(O)CN2CCc3ccccc3C2)C1 (centres unmarked) [Compound A102] | < 100 | 1000 to 10000 | – |
| CN(C)c1cccc(OCC(=O)NCC(O)CN2CCc3ccccc3C2)c1 (centres unmarked) [Compound A27] | < 100 | 1000 to 10000 | – |
| O=C(COc1ccccc1-c1cc[nH]n1)NC[C@H](O)CN1CCc2ccccc2C1 [Compound A68] | < 100 | > 20000 | – |
| O=C(CNc1ccccc1)NCC(O)CN1CCc2ccccc2C1 (centres unmarked) [Compound A18] | 1000 to 10000 | > 20000 | – |
| CN1CCN(S(=O)(=O)c2ccccc2OCC(=O)NCC(O)CN2CCc3ccccc3C2)CC1 (centres unmarked) [Compound A108] | < 100 | 10000 to 50000 | – |
| O=C(COc1ccccc1C1CCCNC1)NCC(O)CN1CCc2ccccc2C1 (centres unmarked) [Compound A117] | 101 to 1000 | 1000 to 10000 | – |
| O=C(COc1ccccc1S(=O)(=O)N1CCC(O)C1)NCC(O)CN1CCc2ccccc2C1 (centres unmarked) [Compound A111] | < 100 | 101 to 1000 | – |
| C[C@@H](Oc1cccc2cccnc12)C(=O)NC[C@@H](O)CN1CCc2ccccc2C1 [Compound A74] | < 100 | 1000 to 10000 | – |
| CN1CCCC(c2ccccc2OCC(=O)NCC(O)CN2CCc3ccccc3C2)C1 (centres unmarked) [Compound A130] | < 100 | 1000 to 10000 | – |
| O=C(COc1ccc2ncn(C3CCNCC3)c2c1)NCC(O)CN1CCc2ccccc2C1 (centres unmarked) [Compound A70] | < 100 | > 20000 | – |
| O=C(COc1ccccc1-c1cc[nH]n1)NCC(O)CN1CCc2ccccc2C1 (centres unmarked) [Compound A50] | < 100 | 1000 to 10000 | – |
| CS(=O)(=O)N1CCN(c2ccccc2OCC(=O)NCC(O)CN2CCc3ccccc3C2)CC1 (centres unmarked) [Compound A106] | 101 to 1000 | > 20000 | – |
| O=C(COc1cccc2c1CNCC2)NCC(O)CN1CCc2ccccc2C1 (centres unmarked) [Compound A119] | < 100 | 10000 to 50000 | – |
| CC(Oc1ccccc1S(C)(=O)=O)C(=O)NCC(O)CN1CCc2ccccc2C1 (centres unmarked) [Compound A114] | 101 to 1000 | > 20000 | – |
| COc1ccc2cccc(OCC(=O)NC[C@@H](O)CN3CCc4ccccc4C3)c2n1 [Compound A98] | < 100 | 1000 to 10000 | – |
| N#Cc1ccccc1OCC(=O)NCC(O)CN1CCc2ccccc2C1 (centres unmarked) [Compound A17] | 101 to 1000 | 10000 to 50000 | – |
| CN(C)c1ccccc1OCC(=O)NCC(O)CN1CCc2ccccc2C1 (centres unmarked) [Compound A38] | < 100 | 1000 to 10000 | – |
| O=C(COc1ccccc1C1CCNCC1)NCC(O)CN1CCc2ccccc2C1 (centres unmarked) [Compound A103] | < 100 | > 20000 | – |
| CS(=O)(=O)Nc1ccc(OCC(=O)NCC(O)CN2CCc3ccccc3C2)cc1 (centres unmarked) [Compound A42] | 101 to 1000 | > 20000 | – |

| SMILES | IC50 [1, 3] [nM] | EC50 [2] [nM] | IC50 ([1]; Biochemical IC50) [nM] |
| --- | --- | --- | --- |
| CN(c1cccc(OCC(=O)NCC(O)CN2CCc3ccccc3C2)c1)S(C)(=O)=O (centres unmarked) [Compound A142] | 101 to 1000 | > 20000 | – |
| CN1CCC(n2ncc3cc(OCC(=O)NCC(O)CN4CCc5ccccc5C4)ccc32)C1 (centres unmarked) [Compound A96] | < 100 | 10000 to 50000 | – |
| CC(=O)Nc1ccccc1OCC(=O)NCC(O)CN1CCc2ccccc2C1 (centres unmarked) [Compound A36] | 101 to 1000 | > 20000 | – |
| COc1cccc(OCC(=O)NCC(O)CN2CCc3ccccc3C2)c1 (centres unmarked) [Compound A20] | < 100 | 1000 to 10000 | – |
| COc1ccccc1OCC(=O)NCC(O)CN1CCc2ccccc2C1 (centres unmarked) [Compound A22] | < 100 | 1000 to 10000 | – |
| C[C@@H](Oc1cccc2cccnc12)C(=O)NC[C@H](O)CN1CCc2ccccc2C1 [Compound A73] | < 100 | 101 to 1000 | – |
| O=C(COc1ccccc1)NC[C@H](O)CN1CCc2ccccc2C1 [Compound A32] | 101 to 1000 | 10000 to 50000 | – |
| CN(C)c1ccc(OCC(=O)NCC(O)CN2CCc3ccccc3C2)cc1 (centres unmarked) [Compound A35] | 101 to 1000 | 10000 to 50000 | – |
| CC(=O)N1CCN(S(=O)(=O)c2ccccc2OCC(=O)NCC(O)CN2CCc3ccccc3C2)CC1 (centres unmarked) [Compound A122] | 101 to 1000 | > 20000 | – |
| CC(=O)N1CCc2c(cccc2OCC(=O)NCC(O)CN2CCc3ccccc3C2)C1 (centres unmarked) [Compound A101] | < 100 | 1000 to 10000 | – |
| O=C(COc1ccccc1C1CCNC1)NCC(O)CN1CCc2ccccc2C1 (centres unmarked) [Compound A116] | 1000 to 10000 | > 20000 | – |
| Cn1cnc2cc(OCC(=O)NCC(O)CN3CCc4ccccc4C3)ccc21 (centres unmarked) [Compound A46] | 101 to 1000 | 10000 to 50000 | – |
| Cn1ncc2ccc(OCC(=O)NCC(O)CN3CCc4ccccc4C3)cc21 (centres unmarked) [Compound A23] | < 100 | 1000 to 10000 | – |
| NS(=O)(=O)c1ccccc1OCC(=O)NCC(O)CN1CCc2ccccc2C1 (centres unmarked) [Compound A65] | < 100 | 1000 to 10000 | – |
| CS(=O)(=O)Nc1cccc(OCC(=O)NCC(O)CN2CCc3ccccc3C2)c1 (centres unmarked) [Compound A28] | < 100 | 1000 to 10000 | – |
| CC(Oc1cccc2cccnc12)C(=O)NCC(O)CN1CCc2ccccc2C1 (centres unmarked) [Compound A39] | < 100 | 101 to 1000 | – |
| CN1CCc2cccc(OCC(=O)NCC(O)CN3CCc4ccccc4C3)c2C1 (centres unmarked) [Compound A120] | 101 to 1000 | > 20000 | – |
| COc1ccc(OCC(=O)NCC(O)CN2CCc3ccccc3C2)cc1 (centres unmarked) [Compound A12] | 101 to 1000 | 10000 to 50000 | – |
| CNS(=O)(=O)c1ccccc1OCC(=O)NCC(O)CN1CCc2ccccc2C1 (centres unmarked) [Compound A123] | < 100 | 1000 to 10000 | – |
| CC(=O)Nc1cccc(OCC(=O)NCC(O)CN2CCc3ccccc3C2)c1 (centres unmarked) [Compound A31] | 1000 to 10000 | 10000 to 50000 | – |
| O=C(COc1cccc2c1OCCO2)NCC(O)CN1CCc2ccccc2C1 (centres unmarked) [Compound A100] | < 100 | 1000 to 10000 | – |

| SMILES | IC50 [1, 3] [nM] | EC50 [2] [nM] | IC50 ([1]; Biochemical IC50) [nM] |
| --- | --- | --- | --- |
| CN(C)c1ccc2cccc(OCC(=O)NC[C@@H](O)CN3CCc4ccccc4C3)c2n1 [Compound A105] | < 100 | 1000 to 10000 | – |
| O=C(COc1ccccc1N1CCOCC1)NCC(O)CN1CCc2ccccc2C1 (centres unmarked) [Compound A49] | < 100 | 1000 to 10000 | – |
| O=C(COc1cccc2cccnc12)NC[C@H](O)CN1CCc2ccccc2C1 [Compound A44] | – | 10000 to 50000 | 101 to 1000 |
| CC(=O)Nc1ccc(OCC(=O)NCC(O)CN2CCc3ccccc3C2)cc1 (centres unmarked) [Compound A21] | 101 to 1000 | > 20000 | – |
| CC(Oc1ccccc1)C(=O)NCC(O)CN1CCc2ccccc2C1 (centres unmarked) [Compound A19] | < 100 | 1000 to 10000 | – |
| O=C(COc1cccc2ncc(=O)[nH]c12)NCC(O)CN1CCc2ccccc2C1 (centres unmarked) [Compound A129] | 101 to 1000 | > 20000 | – |
| O=C(COc1cccc(F)c1)NCC(O)CN1CCc2ccccc2C1 (centres unmarked) [Compound A7] | 101 to 1000 | 10000 to 50000 | – |
| O=C(COc1ccccc1-c1ncc[nH]1)NCC(O)CN1CCc2ccccc2C1 (centres unmarked) [Compound A137] | 101 to 1000 | > 20000 | – |
| O=C(COc1ccccc1F)NCC(O)CN1CCc2ccccc2C1 (centres unmarked) [Compound A16] | 101 to 1000 | 10000 to 50000 | – |
| Cc1cccc(OCC(=O)NCC(O)CN2CCc3ccccc3C2)c1 (centres unmarked) [Compound A26] | < 100 | 1000 to 10000 | – |
| CNC(=O)c1ccccc1OCC(=O)NCC(O)CN1CCc2ccccc2C1 (centres unmarked) [Compound A112] | 101 to 1000 | > 20000 | – |
| Cc1ccc(OCC(=O)NCC(O)CN2CCc3ccccc3C2)cc1 (centres unmarked) [Compound A9] | 101 to 1000 | 10000 to 50000 | – |
| CC(C)(Oc1cccc2cccnc12)C(=O)NCC(O)CN1CCc2ccccc2C1 (centres unmarked) [Compound A43] | < 100 | 1000 to 10000 | – |
| O=C(COc1cccc2ccccc12)NCC(O)CN1CCc2ccccc2C1 (centres unmarked) [Compound A66] | < 100 | 1000 to 10000 | – |
| NC(=O)c1ccccc1OCC(=O)NCC(O)CN1CCc2ccccc2C1 (centres unmarked) [Compound A29] | 101 to 1000 | > 20000 | – |
| COc1ccc2cccc(OCC(=O)NC[C@H](O)CN3CCc4ccccc4C3)c2n1 [Compound A97] | 101 to 1000 | 1000 to 10000 | – |
| CN(C)c1ccc2cccc(OCC(=O)NC[C@H](O)CN3CCc4ccccc4C3)c2n1 [Compound A104] | 101 to 1000 | > 20000 | – |
| CN1CCc2c(cccc2OCC(=O)NCC(O)CN2CCc3ccccc3C2)C1 (centres unmarked) [Compound A99] | < 100 | 1000 to 10000 | – |
| CN1CCC(c2ccccc2OCC(=O)NCC(O)CN2CCc3ccccc3C2)CC1 (centres unmarked) [Compound A134] | 101 to 1000 | > 20000 | – |
